Data: ChEMBL document CHEMBL6177963, “Development of acylhydrazone linked thiazoles as non-covalent dual inhibitors of SARS-CoV-2 proteases” (Eur J Med Chem, 2025)
pKi: −log10 of the molar value.

Tests used:
[1] = tested on: Severe acute respiratory syndrome coronavirus 2; assay: Inhibition of recombinant SARS-CoV-2 MPro overexpressed in Escherichia coli assessed as inhibition constant using VNSTLQISGLRLys(Dabcyl) as substrate at 10 uM by FRET assay relative to control
[2] = Inhibition of recombinant SARS-CoV-2 MPro overexpressed in Escherichia coli assessed as inhibition constant using VNSTLQISGLRLys(Dabcyl) as substrate by FRET assay; set-up: species or system Severe acute respiratory syndrome coronavirus 2; settings: for pKi: read-out: Ki

Structure (SMILES): COC(=O)c1sc(NNC(=O)c2ccc([N+](=O)[O-])cc2)nc1C
- inhibition [1]: < 50%
- Ki [2]: Not_active

Structure (SMILES): Cc1ccc(-c2csc(NNC(=O)c3ccc([N+](=O)[O-])cc3)n2)cc1
- pKi [2]: 4.35

Structure (SMILES): CCOC(=O)c1sc(N/N=C/c2cc3ccccc3nc2Cl)nc1C
- Ki [2]: Not_active

Structure (SMILES): CCOC(=O)c1sc(NNC(=O)c2cccs2)nc1C
- pKi [2]: 5.62

Structure (SMILES): Oc1ccc(/C=N/Nc2nc(-c3ccc(Cl)cc3)cs2)cc1
- pKi [2]: 4.73

Structure (SMILES): CCOC(=O)c1sc(NNC(=O)c2cccc(Cl)c2)nc1C
- inhibition [1]: < 50%
- Ki [2]: Not_active

Structure (SMILES): O=C(NNc1nc(-c2ccc(Br)cc2)cs1)c1ccccc1
- inhibition [1]: < 50%
- Ki [2]: Not_active

Structure (SMILES): Cc1ccc(C(=O)NNc2nc(-c3ccc(Br)cc3)cs2)cc1
- inhibition [1]: < 50%
- Ki [2]: Not_active

Structure (SMILES): O=C(NNc1nc(-c2ccc(Br)cc2)cs1)c1ccc(Br)cc1
- inhibition [1]: < 50%
- Ki [2]: Not_active

Structure (SMILES): O=C(NNc1nc(-c2ccc(Br)cc2)cs1)c1ccc(F)cc1
- pKi [2]: 5.37

Structure (SMILES): Cc1ccc(C(=O)NNc2nc(-c3ccc(C)cc3)cs2)cc1
- inhibition [1]: < 50%
- Ki [2]: Not_active

Structure (SMILES): Cc1ccc(-c2csc(NNC(=O)c3ccc(Cl)cc3)n2)cc1
- inhibition [1]: < 50%
- Ki [2]: Not_active

Structure (SMILES): O=C(NNc1ncc(-c2ccc(Cl)cc2)s1)c1ccc2ccccc2c1
- inhibition [1]: < 50%
- Ki [2]: Not_active

Structure (SMILES): CCOC(=O)c1sc(NNC(=O)c2ccc(Br)cc2)nc1C
- pKi [2]: 5.34

Structure (SMILES): Clc1nc2ccccc2cc1/C=N/Nc1nc(-c2ccccc2)cs1
- inhibition [1]: < 50%
- Ki [2]: Not_active

Structure (SMILES): O=c1c2ccccc2[se]n1-c1ccccc1 [EBSELEN]
- pKi [2]: 6.31

Structure (SMILES): CCOC(=O)c1sc(NNC(=O)c2cccc(Br)c2)nc1C
- inhibition [1]: < 50%
- Ki [2]: Not_active

Structure (SMILES): CCOC(=O)c1sc(NNC(=O)c2ccc3ccccc3c2)nc1C
- inhibition [1]: < 50%
- Ki [2]: Not_active

Structure (SMILES): CCOC(=O)c1sc(NNC(=O)c2ccco2)nc1C
- inhibition [1]: < 50%
- Ki [2]: Not_active

Structure (SMILES): O=C(NNc1nc(-c2ccc(Cl)cc2)cs1)c1ccc(Br)cc1
- inhibition [1]: < 50%
- Ki [2]: Not_active

Structure (SMILES): CCOC(=O)c1sc(NNC(=O)c2ccc(Cl)cc2)nc1C
- pKi [2]: 4.83

Structure (SMILES): O=C(NNc1nc(-c2ccc(Cl)cc2)cs1)c1ccc(Cl)cc1
- pKi [2]: 4.87

Structure (SMILES): O=C(NNc1nc(-c2ccc(Cl)cc2)cs1)c1ccc(F)cc1
- pKi [2]: 4.98

Structure (SMILES): CCOC(=O)c1sc(NNC(=O)c2ccccc2C)nc1C
- inhibition [1]: < 50%
- Ki [2]: Not_active

Structure (SMILES): CCOC(=O)c1sc(NNC(=O)c2ccc(C)cc2)nc1C
- inhibition [1]: < 50%
- Ki [2]: Not_active

Structure (SMILES): CCOC(=O)c1sc(NNC(=O)/C=C/c2ccccc2)nc1C
- pKi [2]: 5.96

Structure (SMILES): O=C(NNc1nc(-c2ccc(Br)cc2)cs1)c1ccc([N+](=O)[O-])cc1
- inhibition [1]: < 50%
- Ki [2]: Not_active

Structure (SMILES): CCOC(=O)c1sc(NNC(=O)c2ccc([N+](=O)[O-])cc2)nc1C
- pKi [2]: 6.14

Structure (SMILES): Cc1ccc(C(=O)NNc2nc(-c3ccc(Cl)cc3)cs2)cc1
- pKi [2]: 5.03

Structure (SMILES): O=C(NNc1ncc(-c2ccc(Cl)cc2)s1)c1cccc(Cl)c1
- inhibition [1]: < 50%
- Ki [2]: Not_active

Structure (SMILES): O=C(NNc1nc(-c2ccc(Br)cc2)cs1)c1ccc(Cl)cc1
- inhibition [1]: < 50%
- Ki [2]: Not_active

Structure (SMILES): Cc1ccc(-c2csc(NNC(=O)c3ccc(Br)cc3)n2)cc1
- inhibition [1]: < 50%
- Ki [2]: Not_active

Structure (SMILES): CCOC(=O)c1sc(NNC(=O)c2ccccc2)nc1C
- inhibition [1]: < 50%
- Ki [2]: Not_active

Structure (SMILES): CCOC(=O)c1sc(NNC(=O)c2ccccc2OC)nc1C
- inhibition [1]: < 50%
- Ki [2]: Not_active

Structure (SMILES): CCOC(=O)c1sc(NNC(=O)c2ccc(F)cc2)nc1C
- inhibition [1]: < 50%
- Ki [2]: Not_active

Structure (SMILES): Cc1ccc(-c2csc(NNC(=O)c3ccc(F)cc3)n2)cc1
- pKi [2]: 4.96
